We go through 13 compounds from ChEMBL document CHEMBL1148283 (J Med Chem, 2004).

A value given as a limit tells only on which side of the number the result lay.

In assay [1] the target is T1, Nitric oxide synthase 1 (Homo sapiens, UniProt P29475).
Description: In vitro inhibition of human neuronal nitric oxide synthase.
The target in the next assay is T2, Nitric oxide synthase 3 (Homo sapiens, UniProt P29474).
T2 sequence (P29474 whole entry): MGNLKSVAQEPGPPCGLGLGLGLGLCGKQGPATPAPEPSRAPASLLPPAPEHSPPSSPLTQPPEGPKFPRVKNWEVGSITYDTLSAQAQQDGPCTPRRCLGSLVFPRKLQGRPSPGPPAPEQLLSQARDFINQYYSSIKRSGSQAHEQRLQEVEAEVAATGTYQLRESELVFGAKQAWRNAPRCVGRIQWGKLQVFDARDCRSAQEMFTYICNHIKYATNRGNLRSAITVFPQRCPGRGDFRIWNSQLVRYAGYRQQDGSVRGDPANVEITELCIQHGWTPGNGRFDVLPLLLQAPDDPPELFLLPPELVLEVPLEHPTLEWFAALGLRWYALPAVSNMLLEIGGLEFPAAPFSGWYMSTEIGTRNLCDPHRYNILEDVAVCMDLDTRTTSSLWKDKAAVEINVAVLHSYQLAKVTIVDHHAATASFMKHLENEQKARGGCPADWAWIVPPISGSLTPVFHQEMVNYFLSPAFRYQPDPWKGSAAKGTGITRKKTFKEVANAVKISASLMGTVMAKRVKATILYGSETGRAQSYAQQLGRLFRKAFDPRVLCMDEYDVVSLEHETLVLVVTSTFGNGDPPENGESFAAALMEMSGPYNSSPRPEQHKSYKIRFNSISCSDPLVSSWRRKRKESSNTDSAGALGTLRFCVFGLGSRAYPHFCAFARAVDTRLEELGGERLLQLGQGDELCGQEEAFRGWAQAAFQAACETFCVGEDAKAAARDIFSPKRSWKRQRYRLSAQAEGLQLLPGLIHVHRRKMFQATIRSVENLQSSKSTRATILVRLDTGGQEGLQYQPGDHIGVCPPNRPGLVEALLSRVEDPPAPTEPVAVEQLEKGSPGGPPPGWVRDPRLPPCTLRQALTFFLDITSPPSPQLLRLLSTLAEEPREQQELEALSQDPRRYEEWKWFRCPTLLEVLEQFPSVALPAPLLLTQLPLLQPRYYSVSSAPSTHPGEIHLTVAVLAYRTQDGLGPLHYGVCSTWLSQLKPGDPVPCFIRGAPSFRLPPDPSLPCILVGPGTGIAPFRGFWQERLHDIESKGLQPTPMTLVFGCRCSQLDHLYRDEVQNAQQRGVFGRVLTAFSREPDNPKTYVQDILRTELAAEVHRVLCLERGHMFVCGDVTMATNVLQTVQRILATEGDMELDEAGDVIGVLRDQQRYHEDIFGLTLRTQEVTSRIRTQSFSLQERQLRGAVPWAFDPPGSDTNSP
As to the kind of experiment: In vitro inhibition of human endothelial nitric oxide synthase.

Assay [2] deals with Nitric oxide synthase, inducible (Homo sapiens, UniProt P35228).
For assay [3], the target named is T3, Nitric oxide synthase 3 (Homo sapiens) (UniProt P29474).
T3 sequence (whole entry): T2 sequence (P29474 whole entry)
As to the kind of experiment: Percentage inhibition of human endothelial nitric oxide synthase (eNOS) at 100 uM.

In assay [4] the target is T1, Nitric oxide synthase 1. Kind of assay: Percentage inhibition of human neuronal nitric oxide synthase (nNOS) at 100 uM.

T1 sequence (P29475 whole entry): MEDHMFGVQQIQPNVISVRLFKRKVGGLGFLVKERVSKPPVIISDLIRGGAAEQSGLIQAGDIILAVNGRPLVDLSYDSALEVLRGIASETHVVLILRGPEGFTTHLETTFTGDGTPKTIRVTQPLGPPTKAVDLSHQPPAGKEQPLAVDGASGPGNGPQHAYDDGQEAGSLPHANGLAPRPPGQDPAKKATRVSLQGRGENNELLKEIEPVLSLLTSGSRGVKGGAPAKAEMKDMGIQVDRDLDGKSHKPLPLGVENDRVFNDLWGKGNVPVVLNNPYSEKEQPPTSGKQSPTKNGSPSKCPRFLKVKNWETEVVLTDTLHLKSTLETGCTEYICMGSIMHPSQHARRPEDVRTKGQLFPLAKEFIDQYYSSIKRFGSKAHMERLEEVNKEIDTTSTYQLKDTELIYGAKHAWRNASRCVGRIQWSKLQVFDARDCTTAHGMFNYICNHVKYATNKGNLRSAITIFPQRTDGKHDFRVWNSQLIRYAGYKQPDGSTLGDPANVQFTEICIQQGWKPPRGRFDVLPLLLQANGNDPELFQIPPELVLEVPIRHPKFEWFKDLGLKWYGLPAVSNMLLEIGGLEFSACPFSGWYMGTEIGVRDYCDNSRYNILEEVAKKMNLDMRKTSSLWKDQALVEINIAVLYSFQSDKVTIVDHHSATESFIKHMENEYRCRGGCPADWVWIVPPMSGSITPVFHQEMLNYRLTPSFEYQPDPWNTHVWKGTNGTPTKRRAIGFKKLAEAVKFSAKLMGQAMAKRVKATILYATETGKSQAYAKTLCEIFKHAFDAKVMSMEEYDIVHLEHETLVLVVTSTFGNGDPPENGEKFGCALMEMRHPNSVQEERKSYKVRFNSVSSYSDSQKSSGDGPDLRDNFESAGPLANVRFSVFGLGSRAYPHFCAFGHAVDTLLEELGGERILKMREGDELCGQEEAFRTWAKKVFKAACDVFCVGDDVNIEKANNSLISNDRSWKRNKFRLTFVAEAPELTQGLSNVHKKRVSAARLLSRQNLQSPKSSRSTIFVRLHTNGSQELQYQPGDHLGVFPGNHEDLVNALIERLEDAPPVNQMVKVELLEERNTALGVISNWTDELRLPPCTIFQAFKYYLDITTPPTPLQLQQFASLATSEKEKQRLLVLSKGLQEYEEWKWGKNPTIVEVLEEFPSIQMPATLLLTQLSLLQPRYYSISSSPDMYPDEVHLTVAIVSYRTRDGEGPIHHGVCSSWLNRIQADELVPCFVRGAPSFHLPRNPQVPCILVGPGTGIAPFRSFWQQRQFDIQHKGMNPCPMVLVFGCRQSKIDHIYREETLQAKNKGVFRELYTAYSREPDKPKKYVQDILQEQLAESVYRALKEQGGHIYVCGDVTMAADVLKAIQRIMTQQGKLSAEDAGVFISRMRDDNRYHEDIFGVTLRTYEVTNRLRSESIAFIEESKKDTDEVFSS
Sequence of Nitric oxide synthase, inducible (P35228 whole entry): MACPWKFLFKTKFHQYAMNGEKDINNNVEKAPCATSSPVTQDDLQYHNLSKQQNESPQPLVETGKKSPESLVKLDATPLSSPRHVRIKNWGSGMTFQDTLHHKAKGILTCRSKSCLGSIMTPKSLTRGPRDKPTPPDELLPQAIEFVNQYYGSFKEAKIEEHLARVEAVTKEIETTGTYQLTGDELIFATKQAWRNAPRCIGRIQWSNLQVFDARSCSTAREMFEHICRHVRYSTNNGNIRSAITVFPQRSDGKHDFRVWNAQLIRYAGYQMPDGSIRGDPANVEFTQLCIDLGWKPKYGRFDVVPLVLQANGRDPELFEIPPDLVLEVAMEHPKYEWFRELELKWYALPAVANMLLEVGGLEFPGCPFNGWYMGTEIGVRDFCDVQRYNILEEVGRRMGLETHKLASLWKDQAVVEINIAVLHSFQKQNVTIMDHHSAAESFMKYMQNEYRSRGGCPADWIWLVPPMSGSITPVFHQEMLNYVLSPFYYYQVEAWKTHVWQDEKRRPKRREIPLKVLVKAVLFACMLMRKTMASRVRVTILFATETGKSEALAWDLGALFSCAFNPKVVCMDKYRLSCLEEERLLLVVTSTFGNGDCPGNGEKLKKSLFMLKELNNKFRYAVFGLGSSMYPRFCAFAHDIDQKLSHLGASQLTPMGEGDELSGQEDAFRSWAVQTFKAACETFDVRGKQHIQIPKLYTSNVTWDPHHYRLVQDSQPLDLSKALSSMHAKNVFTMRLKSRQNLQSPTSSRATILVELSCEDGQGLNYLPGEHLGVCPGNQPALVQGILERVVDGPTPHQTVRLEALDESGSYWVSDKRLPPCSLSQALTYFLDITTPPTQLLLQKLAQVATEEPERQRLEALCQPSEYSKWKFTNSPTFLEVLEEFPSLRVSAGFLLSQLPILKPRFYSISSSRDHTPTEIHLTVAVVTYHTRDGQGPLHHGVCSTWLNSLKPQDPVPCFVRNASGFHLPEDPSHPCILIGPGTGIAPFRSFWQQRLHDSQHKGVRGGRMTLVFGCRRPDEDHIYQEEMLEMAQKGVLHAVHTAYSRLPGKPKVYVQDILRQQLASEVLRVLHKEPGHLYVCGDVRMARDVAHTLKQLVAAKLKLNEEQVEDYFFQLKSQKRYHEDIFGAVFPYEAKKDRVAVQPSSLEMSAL

In general, IC50 refers to the concentration that inhibits the measured activity by half. Consider `CC(=N)NCCCC[C@H](N)C(=O)O` [L-NIL], for which 1.6 µM corresponded to half-maximal inhibition at Nitric oxide synthase 1 [1] (IC50).
For the compound `COc1ccnc(N)c1`, the IC50 (at Nitric oxide synthase 3; at Nitric oxide synthase 1 [1]; in assay [2]) was 1 µM throughout.
Consider `CCc1ccnc(N)c1`, for which, at Nitric oxide synthase 1 [1], the IC50 is 2.2 µM.
In general, inhibition refers to the drop in the measured response relative to a control, in per cent. `COc1ccnc(NC2CCN(C(=O)c3ccc(C#N)cc3)CC2)c1`: the inhibition in assay [3] was less than 20%.
In the case of `COc1ccnc(NC2CCN(C(=O)c3ccccc3)CC2)c1`, the IC50 amounted to 100 µM at Nitric oxide synthase 3, 28 µM on Nitric oxide synthase 1 [1] and 0.53 µM in assay [2].
For the compound `CCOC(=O)N1CCC(Nc2cc(OCC)ccn2)CC1`, the inhibition in assay [3] was less than 20%. Further, the IC50 against Nitric oxide synthase 3 was greater than 100 µM; at Nitric oxide synthase 1 [1], 96 µM; in assay [2], 3.8 µM.
For `CCCC1CCCCCC(N)=N1` (stereo not given), the half-maximal inhibitory concentration (IC50) on Nitric oxide synthase 3 worked out at 4.8 µM; on Nitric oxide synthase 1 [1], 0.24 µM; in assay [2] it was 0.026 µM.
The corresponding values for `COc1ccnc(NC2CCN(C(=O)c3ccc(Cl)cc3)CC2)c1` are 36 µM, 7.8 µM and 0.053 µM.
On to `N#Cc1ccc(C(=O)N2CCC3(CC2)N=C(N)c2c(F)ccc(F)c2N3)cn1`, for which the inhibition in assay [3] was less than 20%.
Consider `CNc1cc(C)cc(C)n1`, for which the IC50 against Nitric oxide synthase 3 is 30 µM; against Nitric oxide synthase 1 [1] it was greater than 100 µM; in assay [2] it was 86 µM. For the same compound, the inhibition against Nitric oxide synthase 1 [4] was less than 20%.
`Cc1cc(C)nc(N)c1`: the half-inhibitory concentration (IC50) against Nitric oxide synthase 3 was found to be 0.17 µM; against Nitric oxide synthase 1 [1], 0.098 µM; in assay [2], 0.045 µM.
The corresponding values for `CC(=N)NCCSCC[C@H](N)C(=O)O` [GW-274150] are 34 µM, 18 µM and 0.07 µM.
With `CCOC(=O)N1CCC(Nc2ccccn2)CC1`, the inhibition (in assay [3]; against Nitric oxide synthase 1 [4]) was less than 20% throughout. Also, the IC50 against Nitric oxide synthase 3 was greater than 100 µM; at Nitric oxide synthase 1 [1] it was greater than 100 µM; in assay [2], 13 µM.
